The target in one data set is T1, BTK (Canis lupus familiaris, UniProt A0A8I3P3Z9).
T1 construct: from tissue; host or cells: blood of the treated Doberman dog
In words: BTK occupancy in blood of the treated dog. The following applies: 30 kg Doberman dog, oral 500 mg daily; blood taken 24 hours after the first dose; read-out: level of BTK occupancy 24 hours after each dose. The format is in vivo.

The test system of another data set is pemphigus folliaceus. The data set is described as follows: Dog Pemphigus Foliaceus Study. The format is in vivo. The following applies: for overall efficacy and safety in treatment of PF: single agent. Here is the method:
A 30 kg Doberman dog with a characteristic first presentation of pemphigus folliaceus on the nose and paws was administered an oral dose of 500 mg daily of the BTK inhibitor (R,E)-2-(3-(4-amino-3-(2-fluoro-4-phenoxyphenyl)-1H-pyrazolo[3,4-d]-pyrimidin-1-yl)piperidine-1-carbonyl)-4,4-dimethylpent-2-enenitrile instead of the usual treatment for pemphigus of high dose corticosteroids (typically 1-2 mg/kg).
The dog responded clinically to the drug as a monotherapy within three days, with improved eating and ambulation noted by the owner.

The conditions of data set [1]: cited from earlier work.
The conditions of data set [2]: cited from earlier work; for onset of effect / clinical response / time of maximal effect: pemphigus vulgaris.
The conditions of data set [3]: ANCA-associated vasculitis, cited from earlier work.

Where two headings read alike, the source gives them in different places.

T1 sequence (A0A8I3P3Z9 1-664): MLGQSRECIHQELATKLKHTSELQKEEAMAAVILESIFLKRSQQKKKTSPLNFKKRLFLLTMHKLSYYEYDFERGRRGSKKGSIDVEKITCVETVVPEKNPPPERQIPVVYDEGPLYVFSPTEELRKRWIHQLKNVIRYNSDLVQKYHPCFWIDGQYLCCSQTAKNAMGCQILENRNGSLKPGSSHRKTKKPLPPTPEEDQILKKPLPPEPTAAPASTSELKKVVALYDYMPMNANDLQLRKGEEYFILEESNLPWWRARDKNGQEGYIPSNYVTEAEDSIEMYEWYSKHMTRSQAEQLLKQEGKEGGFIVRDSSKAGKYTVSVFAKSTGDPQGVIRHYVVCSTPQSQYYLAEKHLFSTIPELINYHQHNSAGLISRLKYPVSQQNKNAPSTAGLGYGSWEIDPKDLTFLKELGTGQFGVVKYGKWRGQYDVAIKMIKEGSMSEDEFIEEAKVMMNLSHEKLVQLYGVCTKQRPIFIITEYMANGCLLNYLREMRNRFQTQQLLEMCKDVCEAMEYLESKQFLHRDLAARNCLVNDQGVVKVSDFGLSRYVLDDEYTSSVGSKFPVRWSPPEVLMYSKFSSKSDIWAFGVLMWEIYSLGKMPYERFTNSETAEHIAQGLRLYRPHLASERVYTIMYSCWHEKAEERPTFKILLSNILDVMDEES

As for `CC(C)(C)/C=C(\C#N)C(=O)N1CCC[C@@H](n2nc(-c3ccc(Oc4ccccc4)cc3F)c3c(N)ncnc32)C1` [(R,E)-2-(3-(4-amino-3-(2-fluoro-4-phenoxyphenyl)-1H-pyrazolo[3,4-d]-pyrimidin-1-yl)piperidine-1-carbonyl)-4,4-dimethylpent-2-enenitrile], at BTK, the receptor occupancy at 500 mg is roughly 70%. Further, the “manifestation of clinical response compared with systemic corticosteroid therapy” value with pemphigus folliaceus (dog PF) was “as rapid and comparable to that observed with systemic corticosteroid therapy”. Also, the “corticosteroid-like adverse effects (polyuria, polydipsia, polyphagia or weight gain)” value in the data set with pemphigus folliaceus (dog PF, oral 500 mg daily) is “none and No well-known corticosteroid-like adverse effects”. In the data set with pemphigus folliaceus (dog PF, oral 500 mg daily, four weeks), the “skin lesions by four weeks” value is recorded as “completely healed”. Further, in the data set on pemphigus folliaceus (dog PF, oral 500 mg daily, monotherapy), the “time to clinical response (improved eating and ambulation)” value is “three”. In addition, in the data set on pemphigus folliaceus (dog PF, oral 500 mg daily, one week), the “clinical status at one week follow up visit” value is “improved general health and commencement of pemphigus lesion healing”. In the data set on pemphigus folliaceus (dog PF, oral 500 mg daily, two weeks), the “clinical status after two weeks of treatment” value is “general health of the dog was excellent and skin lesions continued to improve”. Moreover, the “overall efficacy and safety in treatment of PF” value was “effective and safe” in the data set with pemphigus folliaceus; “rapidly control dog PF” in the data set on pemphigus folliaceus (listed as (R, E)-2-(3-(4-amino-3-(2-fluoro-4-phenoxyphenyl)-1H-pyrazolo[3,4-d]-pyrimidin-1))).

In the case of Belimumab: an anti-Blys antibody, the “patients able to reduce corticosteroid use to <7.5 mg of prednisone” value in data set [1] (chronic SLE, week 40-52) was ≤ 21% of patients (Benlysta US Product. In data set [1], the “effect on improvement of chronic SLE” value was “modest and delayed effect on improvement”.

With “Rituximab: anti-CD20 antibody rituximab, approved for treatment of B cell malignancies”, the “side effects in treated patients” value in data set [2] (patients treated with rituximab) was “serious side effects such as pneumonia”. Besides, in data set [2], the “onset of effect / clinical response” value is recorded as “Rituximab has delayed effect in pemphigus” and the “time of maximal effect” value was “vulgaris with maximal effect at 8-12 weeks”. In data set [2] (listed as rituximab), the “onset of effect / clinical response” value is on record as “significant delay in clinical response” and the “time of maximal effect” value is reported as 8-12 weeks. Besides, in data set [3] (despite concomitant use of corticosteroids for 5 months), the cases achieving remission result is “in only 64% of cases despite concomitant use”. In addition, the onset of effect result in data set [3] is “Rituximab has delayed effect in ANCA-”.

(Values after patent US10485797B2, “Treatment of pemphigus” (Principia Biopharma Inc., priority 2014, dated 2019).)
